Measurements from patent US20220184072A1 (priority 2019, published 2022).
Several values for one entry are separate records, joined by “and”; a condition that tells them apart may be missing. Equal entries are not always repeated. Where two headings read alike, the source gives them in different places.

What was measured:
C57 mice = conditions: mouse, in vivo
STZ-diabetic rats [1] = assay: STZ-rat model, tactile stimuli (von Frey filaments); format: in vivo
Procedure: (§1) The compound of Example 1 is also tested in an STZ-rat model of neuropathic pain. Briefly, adult female rats are made diabetic by treatment with streptozotocin (STZ), an alkylating neoplastic agent which is particularly toxic to the insulin-producing beta cells of the pancreas. The resulting type-I diabetes in the rats leads to the development of diabetic neuropathy over a 3 to 6-week period. […] Once diabetic neuropathy has been induced, the rats may be treated to determine the analgesic effect of compounds.
Paw tactile response threshold is a clinical assessment of allodynia to light touch. It can be measured using manual von Frey filaments (as described in Otto et al., Pain, 101:187-92 (2003). A series of von Frey filaments with logarithmically increasing stiffness are used, and the rats' response to each filament is observed. The results are used to calculate a 50%-withdrawal threshold (an amount of stiffness in the filament resulting in a 50% probability of withdrawal of the rat's paw).
This test is performed using the von Frey filaments as described above.

STZ-diabetic rats [2] = assay: STZ-rat model, mechanical (pressure) stimuli; format: in vivo
Procedure: as §1
Paw mechanical response threshold is also a clinical assessment of allodynia to light touch, but it relies on the observed response to pressure (force) applied to a paw.
This test is performed by measuring the static applied force threshold (pressure) for paw removal, as described above.

ZFD rats [3] = assay: ZFD rat model, manual von Frey (tactile); format: in vivo; design: unit not given here
ZFD rats [4] = assay: ZFD rat model, electronic von Frey (paw pressure); format: in vivo; design: unit not given here
Procedure: Forty (40) adult, male […] rats weighing 225-275 g at the start of the study are used in these experiments, including ten (10) lean, controls and thirty (30) ZFD rats. Animals are maintained in the vivarium at a controlled room temperature between 65 to 85° F. and a relative humidity between 30-70% under illumination by fluorescent lighting on a daily 12-hour light/dark cycle. All animals are maintained 2 per cage with free access to dry food and water.
Paw pressure response threshold: This test applies greater force to the plantar hind paw than manual von Frey filaments and may be equated to pressure-induced pain such as that described by diabetic subjects upon standing and walking. Hyperalgesia to this measure develops over several weeks in ZFD rats such that this test can give an assessment of hyperalgesia and drug efficacy that differs from the allodynia measured by manual von Frey filaments. The method is described in detail by Lee-Kubil, Mixcoati-Zecuatl, Jolivalt, & Calcutt, Animal Models of Diabetes-Induced Neuropathic Pain, CURRENT TOPICS IN BEHAVIORAL NEUROSCIENCES 20: 147-170 (2014).
Dosing procedures. Zucker Fatty Diabetic rats are found to develop hyperglycemia over 6-8 weeks. […] Upon confirmation of the presence of painful neuropathy, rats are tested for three measures of hyperalgesia: cold allodynia threshold, tactile hyperalgesia (von Frey filaments), and pressure responses measured by a mechanical von Frey device. All rats are tested in all three assays and all rats receive each of four (4) pre-treatments administered subcutaneously (s.c.) in a vehicle of 10% Trappsol in water. All rats receive treatments in the same order, as follows: vehicle, 1 mg/kg Compound of Ex. 1, 3 mg/kg Compound of Ex. 1, and 10 mg/kg Compound of Ex. 1. Rats receive pre-treatments 30 minutes prior to the start of testing. Hyperalgesia/allodynia measures are recorded from each rat at baseline (0 time), then 1, 2, 3, 4, and 6 h after treatment.
After the completion of testing of all rats at all dose/conditions for each assay (cold, tactile, and pressure responses) rats are out-fitted with cannulas for intrathecal (i.t.) application of vehicle or Compound of Ex. 1 (1, 3 or 10 μg) directly to spinal cord. All rats are then re-tested in each of the tree assays at each of the 4 pretreatment conditions/doses.

[5] = Control rats, 10 mg/kg s.c., 0 hr
[6] = Control rats, 10 mg/kg s.c., 1 hr
[7] = Control rats, 10 mg/kg s.c., 2 hr
[8] = Control rats, 10 mg/kg s.c., 4 hr

O=C1CN2c3c(cccc3[C@@H]3CN(CCCOc4ccc(F)cc4)CC[C@@H]32)N1 [Example 1, (6bR,10aS)-8-(3-(4-fluorophenoxy)propyl)-6b,7,8,9,10,10a-hexahydro-1H-pyrido[3′,4′:4,5]pyrrolo[1,2,3-de]quinoxalin-2(3H)-one]
Mean Behavior Rating (0-4) (C57 mice; po, 3 mg/kg): 0.9 and 0.8 and 1.5
Mean Behavior Rating (0-4) (C57 mice; sc, 1 mg/kg): 1.0 and 1.9 and 1.1
50% withdrawal threshold (STZ-diabetic rats [1]; STZ-diabetic rats, 1 mg/kg s.c., 4 hours (peak)): about 4 g
50% withdrawal threshold (STZ-diabetic rats [1]; STZ-diabetic rats, 1 mg/kg s.c., 6 hours): about 3 g
50% withdrawal threshold (STZ-diabetic rats [1]; STZ-diabetic rats, 3 mg/kg s.c., 1 hours): about 6 g
50% withdrawal threshold (STZ-diabetic rats [1]; STZ-diabetic rats, 3 mg/kg s.c., 2 hours (peak)): ~8 g
50% withdrawal threshold (STZ-diabetic rats [1]; STZ-diabetic rats, 3 mg/kg s.c., 4 hours): about 3 g
50% withdrawal threshold (STZ-diabetic rats [1]; STZ-diabetic rats, 10 mg/kg s.c., 1 hour): about 9 g
50% withdrawal threshold (STZ-diabetic rats [1]; STZ-diabetic rats, 10 mg/kg s.c., 2 hours (peak)): about 10 g
50% withdrawal threshold (STZ-diabetic rats [1]; STZ-diabetic rats, 10 mg/kg s.c., 6 hours): about 3 g
50% withdrawal threshold (STZ-diabetic rats [1]; rat, in vivo, sc, 10 mg/kg): about 7 g
withdrawal force threshold (STZ-diabetic rats [2]; 1 mg/kg s.c., 4 hours (peak)): about 40 g
withdrawal force threshold (STZ-diabetic rats [2]; 1 mg/kg s.c., 6 hours): about 35 g
withdrawal force threshold (STZ-diabetic rats [2]; 3 mg/kg s.c., 2 hours (peak)): about 45 g
withdrawal force threshold (STZ-diabetic rats [2]; 3 mg/kg s.c., 6 hours): about 25 g
withdrawal force threshold (STZ-diabetic rats [2]; 10 mg/kg s.c., 1 hour): about 60 g
withdrawal force threshold (STZ-diabetic rats [2]; 10 mg/kg s.c., 2 hours to 4 hours): 45 to 50 g
withdrawal force threshold (STZ-diabetic rats [2]; 10 mg/kg s.c., 6 hours): about 35 g
Manual von Frey, threshold for paw withdrawal (ZFD rats [3]; Control rats, 10 μg i.t., 0 hr): 11.90
Manual von Frey, threshold for paw withdrawal (ZFD rats [3]; Control rats, 10 μg i.t., 1 hr): 13.90
Manual von Frey, threshold for paw withdrawal (ZFD rats [3]; Control rats, 10 μg i.t., 2 hr): 14.14
Manual von Frey, threshold for paw withdrawal (ZFD rats [3]; Control rats, 10 μg i.t., 4 hr): 13.67
Manual von Frey, threshold for paw withdrawal (ZFD rats [3]; [5]): 13.98
Manual von Frey, threshold for paw withdrawal (ZFD rats [3]; [6]): 12.28
Manual von Frey, threshold for paw withdrawal (ZFD rats [3]; [7]): 13.93
Manual von Frey, threshold for paw withdrawal (ZFD rats [3]; [8]): 13.45
Manual von Frey, threshold for paw withdrawal (ZFD rats [3]; ZFD rats, 1 μg i.t., 0 hr): 2.06
Manual von Frey, threshold for paw withdrawal (ZFD rats [3]; ZFD rats, 1 μg i.t., 1 hr): 2.28
Manual von Frey, threshold for paw withdrawal (ZFD rats [3]; ZFD rats, 1 μg i.t., 4 hr): 4.25
Manual von Frey, threshold for paw withdrawal (ZFD rats [3]; ZFD rats, 3 μg i.t., 0 hr): 5.78
Manual von Frey, threshold for paw withdrawal (ZFD rats [3]; ZFD rats, 3 μg i.t., 1 hr): 9.68
Manual von Frey, threshold for paw withdrawal (ZFD rats [3]; ZFD rats, 3 μg i.t., 2 hr): 12.11
Manual von Frey, threshold for paw withdrawal (ZFD rats [3]; ZFD rats, 3 μg i.t., 4 hr): 7.01
Manual von Frey, threshold for paw withdrawal (ZFD rats [3]; ZFD rats, 10 μg i.t., 0 hr): 1.92
Manual von Frey, threshold for paw withdrawal (ZFD rats [3]; ZFD rats, 10 μg i.t., 1 hr): 8.53
Manual von Frey, threshold for paw withdrawal (ZFD rats [3]; ZFD rats, 10 μg i.t., 2 hr): 11.57
Manual von Frey, threshold for paw withdrawal (ZFD rats [3]; ZFD rats, 10 μg i.t., 4 hr): 4.77
Manual von Frey, threshold for paw withdrawal (ZFD rats [3]; ZFD rats, 1 mg/kg s.c., 1 hr): 2.61
Manual von Frey, threshold for paw withdrawal (ZFD rats [3]; ZFD rats, 1 mg/kg s.c., 2 hr): 1.70
Manual von Frey, threshold for paw withdrawal (ZFD rats [3]; ZFD rats, 1 mg/kg s.c., 4 hr): 2.07
Manual von Frey, threshold for paw withdrawal (ZFD rats [3]; ZFD rats, 3 mg/kg s.c., 0 hr): 2.22
Manual von Frey, threshold for paw withdrawal (ZFD rats [3]; ZFD rats, 3 mg/kg s.c., 1 hr): 6.48
Manual von Frey, threshold for paw withdrawal (ZFD rats [3]; ZFD rats, 3 mg/kg s.c., 2 hr): 10.15
Manual von Frey, threshold for paw withdrawal (ZFD rats [3]; ZFD rats, 10 mg/kg s.c., 0 hr): 1.71
Manual von Frey, threshold for paw withdrawal (ZFD rats [3]; ZFD rats, 10 mg/kg s.c., 1 hr): 6.97
Manual von Frey, threshold for paw withdrawal (ZFD rats [3]; ZFD rats, 10 mg/kg s.c., 2 hr): 13.47
Manual von Frey, threshold for paw withdrawal (ZFD rats [3]; ZFD rats, 10 mg/kg s.c., 4 hr): 9.25
Electronic von Frey (paw pressure response) (ZFD rats [4]; Control rats, 10 μg i.t., 0 hr): 63.68
Electronic von Frey (paw pressure response) (ZFD rats [4]; Control rats, 10 μg i.t., 1 hr): 60.91
Electronic von Frey (paw pressure response) (ZFD rats [4]; Control rats, 10 μg i.t., 2 hr): 62.10
Electronic von Frey (paw pressure response) (ZFD rats [4]; Control rats, 10 μg i.t., 4 hr): 59.56
Electronic von Frey (paw pressure response) (ZFD rats [4]; [5]): 58.64
Electronic von Frey (paw pressure response) (ZFD rats [4]; [6]): 55.73
Electronic von Frey (paw pressure response) (ZFD rats [4]; [7]): 60.74
Electronic von Frey (paw pressure response) (ZFD rats [4]; [8]): 62.89
Electronic von Frey (paw pressure response) (ZFD rats [4]; ZFD rats, 1 μg i.t., 0 hr): 24.76
Electronic von Frey (paw pressure response) (ZFD rats [4]; ZFD rats, 1 μg i.t., 1 hr): 34.77
Electronic von Frey (paw pressure response) (ZFD rats [4]; ZFD rats, 1 μg i.t., 2 hr): 30.09
Electronic von Frey (paw pressure response) (ZFD rats [4]; ZFD rats, 1 μg i.t., 4 hr): 28.19
Electronic von Frey (paw pressure response) (ZFD rats [4]; ZFD rats, 3 μg i.t., 0 hr): 33.23
Electronic von Frey (paw pressure response) (ZFD rats [4]; ZFD rats, 3 μg i.t., 1 hr): 53.94
Electronic von Frey (paw pressure response) (ZFD rats [4]; ZFD rats, 3 μg i.t., 2 hr): 50.17
Electronic von Frey (paw pressure response) (ZFD rats [4]; ZFD rats, 3 μg i.t., 4 hr): 39.95
Electronic von Frey (paw pressure response) (ZFD rats [4]; ZFD rats, 10 μg i.t., 0 hr): 24.68
Electronic von Frey (paw pressure response) (ZFD rats [4]; ZFD rats, 10 μg i.t., 1 hr): 46.37
Electronic von Frey (paw pressure response) (ZFD rats [4]; ZFD rats, 10 μg i.t., 2 hr): 45.01
Electronic von Frey (paw pressure response) (ZFD rats [4]; ZFD rats, 10 μg i.t., 4 hr): 32.33
Electronic von Frey (paw pressure response) (ZFD rats [4]; ZFD rats, 1 mg/kg s.c., 0 hr): 28.36
Electronic von Frey (paw pressure response) (ZFD rats [4]; ZFD rats, 1 mg/kg s.c., 1 hr): 32.99
Electronic von Frey (paw pressure response) (ZFD rats [4]; ZFD rats, 1 mg/kg s.c., 2 hr): 27.35
Electronic von Frey (paw pressure response) (ZFD rats [4]; ZFD rats, 1 mg/kg s.c., 4 hr): 24.67
Electronic von Frey (paw pressure response) (ZFD rats [4]; ZFD rats, 3 mg/kg s.c., 0 hr): 33.72
Electronic von Frey (paw pressure response) (ZFD rats [4]; ZFD rats, 3 mg/kg s.c., 1 hr): 54.21
Electronic von Frey (paw pressure response) (ZFD rats [4]; ZFD rats, 3 mg/kg s.c., 2 hr): 58.41
Electronic von Frey (paw pressure response) (ZFD rats [4]; ZFD rats, 3 mg/kg s.c., 4 hr): 30.01
Electronic von Frey (paw pressure response) (ZFD rats [4]; ZFD rats, 10 mg/kg s.c., 0 hr): 22.69
Electronic von Frey (paw pressure response) (ZFD rats [4]; ZFD rats, 10 mg/kg s.c., 1 hr): 56.02
Electronic von Frey (paw pressure response) (ZFD rats [4]; ZFD rats, 10 mg/kg s.c., 2 hr): 58.15
Electronic von Frey (paw pressure response) (ZFD rats [4]; ZFD rats, 10 mg/kg s.c., 4 hr): 39.32
